Source: ChEMBL document CHEMBL1614631, “Comparative evaluation of oral systemic exposure of 56 xenobiotics in rat, dog, monkey and human” (Xenobiotica, 2005)

Key:
[1] = Dose normalised AUC in human after po administration; conditions: in vivo
[2] = Dose normalised AUC in monkey after po administration; conditions: macaca, in vivo
[3] = Dose normalised AUC in rat after po administration; conditions: in vivo
[4] = Dose normalised AUC in dog after po administration; conditions: in vivo

| SMILES | DNAUC [1] [kg·min/L] | DNAUC [2] [kg·min/L] | DNAUC [3] [kg·min/L] | DNAUC [4] [kg·min/L] |
| --- | --- | --- | --- | --- |
| Cn1cc(/C=C2/C(=O)N3C(C(=O)O)=CS[C@H]23)nn1 | 5 | 0.45 | 0.29 | 3.33 |
| CC1=NC(=O)C(CCN(C(C)C)C(C)C)(c2ccccc2)C2CCCCN12 (stereo not drawn) [ACTISOMIDE] | 51.51 | 26.46 | 14.49 | 71.7 |
| CC[C@H]1OC(=O)[C@H](C)[C@@H](O[C@H]2C[C@@](C)(OC)[C@@H](O)[C@H](C)O2)[C@H](C)[C@@H](O[C@@H]2O[C@H](C)C[C@H](N(C)C)[C@H]2O)[C@](C)(O)C[C@@H](C)CN(C)[C@H](C)[C@@H](O)[C@]1(C)O [AZITHROMYCIN] | 33.15 | 17.52 | 11.42 | 140.4 |
| C1=C(c2ccccc2)CCN(C[C@@H]2CCC=C(c3ccccc3)C2)C1 [CI-1007] | 2.63 | 2.34 | 2.65 | 1.46 |
| O=C(O)c1cn(C2CC2)c2cc(N3CCNCC3)c(F)cc2c1=O [CIPROFLOXACIN] | 77.03 | 85.2 | 9.36 | 32.75 |
| CN(C)CCCC1(c2ccc(F)cc2)OCc2cc(C#N)ccc21 (stereo not drawn) [CITALOPRAM] | 200 | 9.85 | 5.88 | 8.75 |
| O=C1CN=C(c2ccccc2Cl)c2cc([N+](=O)[O-])ccc2N1 [CLONAZEPAM] | 590 | 36.8 | 3.47 | 24 |
| O=c1ccc2ccccc2o1 [COUMARIN] | 2.03 | 31.8 | 37.5 | 40.38 |
| CCN[C@@H](C)Cc1cccc(C(F)(F)F)c1 [DEXFENFLURAMINE] | 80 | 4.38 | 7.2 | 6.72 |
| CC(C)N(CCC(C(N)=O)(c1ccccc1)c1ccccn1)C(C)C (stereo not drawn) [DISOPYRAMIDE] | 550.48 | 2.2 | 6.07 | 101.6 |
| CC[C@H]1OC(=O)[C@H](C)[C@@H](O[C@H]2C[C@@](C)(OC)[C@@H](O)[C@H](C)O2)[C@H](C)[C@@H](O[C@@H]2O[C@H](C)C[C@H](N(C)C)[C@H]2O)[C@](C)(O)C[C@@H](C)C(=O)[C@H](C)[C@@H](O)[C@]1(C)O [ERYTHROMYCIN] | 36.8 | 1.32 | 1.88 | 31.38 |
| C#C[C@]1(O)CC[C@H]2[C@@H]3CCc4cc(O)ccc4[C@H]3CC[C@@]21C [ETHINYL ESTRADIOL] | 75.45 | 0.68 | 0.46 | 4.5 |
| CCC1(C)CC(=O)NC1=O (stereo not drawn) [ETHOSUXIMIDE] | 6666.67 | 2792.79 | 285.71 | 2166.68 |
| COc1ccc(C(C)C)cc1CN[C@H]1C2CCN(CC2)[C@H]1C(c1ccccc1)c1ccccc1 [EZLOPITANT] | 125 | 0.6 | 2.36 | 10.82 |
| O=C(O)C(Cl)c1ccc(C2CCCCC2)c(Cl)c1 (stereo not drawn) [FENCLORAC] | 2651.33 | 491.65 | 630.2 | 2454.09 |
| CN1CCN(c2c(F)cc3c(=O)c(C(=O)O)cn(CCF)c3c2F)CC1 [FLEROXACIN] | 432.41 | 133.54 | 152.4 | 618 |
| CC1(C)O[C@@H]2C[C@H]3[C@@H]4C[C@H](F)C5=CC(=O)C=C[C@]5(C)[C@H]4[C@@H](O)C[C@]3(C)[C@]2(C(=O)CO)O1 [FLUNISOLIDE] | 16.42 | 2.1 | 107.25 | 63.58 |
| C[C@H](C(=O)O)c1ccc2oc(-c3ccc(F)cc3)nc2c1 [FLUNOXAPROFEN] | 2794 | 1464.8 | 14620.68 | 960.78 |
| CC(C(=O)O)c1ccc(-c2ccccc2)c(F)c1 (stereo not drawn) [FLURBIPROFEN] | 2900.56 | 2364.5 | 1042.5 | 4718.5 |
| CC(C)n1c(/C=C/C(O)CC(O)CC(=O)O)c(-c2ccc(F)cc2)c2ccccc21 (stereo not drawn) [FLUVASTATIN] | 49.3 | 5.37 | 195 | 82.11 |
| NS(=O)(=O)c1cc(C(=O)O)c(NCc2ccco2)cc1Cl [FUROSEMIDE] | 184.62 | 43.2 | 44.73 | 57.84 |

| SMILES | DNAUC [1] [kg·min/L] | DNAUC [2] [kg·min/L] | DNAUC [3] [kg·min/L] | DNAUC [4] [kg·min/L] |
| --- | --- | --- | --- | --- |
| NCC1(CC(=O)O)CCCCC1 [GABAPENTIN] | 369.82 | 156.24 | 87.72 | 290.4 |
| CC(=O)[C@H]1CC[C@H]2[C@@H]3CC[C@H]4C[C@](C)(O)CC[C@]4(C)[C@H]3CC[C@]12C [GANAXOLONE] | 5.65 | 1.39 | 0.76 | 77.25 |
| CC(=O)NCCOC(=O)C(Oc1cccc(C(F)(F)F)c1)c1ccc(Cl)cc1 (stereo not drawn) [HALOFENATE] | 15037.59 | 3918.28 | 9183.98 | 390.13 |
| CCCCCNC(=O)c1coc([C@H]2[C@@H](Cc3ccccc3CCC(=O)O)[C@@H]3CC[C@H]2O3)n1 [IFETROBAN] | 77.32 | 13.02 | 2.86 | 9.48 |
| CC(C)(C)NC(=O)[C@@H]1CN(Cc2cccnc2)CCN1C[C@@H](O)C[C@@H](Cc1ccccc1)C(=O)N[C@H]1c2ccccc2C[C@H]1O.O [INDINAVIR] | 52.98 | 5.34 | 3.13 | 46.1 |
| COc1ccc2c(c1)c(CC(=O)O)c(C)n2C(=O)c1ccc(Cl)cc1 [INDOMETHACIN] | 488.62 | 133.1 | 2056 | 793.3 |
| O=C(c1ccccc1)c1ccc2n1CCC2C(=O)O (stereo not drawn) [KETOROLAC] | 1256.47 | 1912.26 | 285 | 1352.94 |
| CCN(CC)CC(=O)Nc1c(C)cccc1C [LIDOCAINE] | 38.04 | 3.79 | 1.64 | 8.38 |
| Cc1cnc(NC(=O)C2=C(O)c3ccccc3S(=O)(=O)N2C)s1 [MELOXICAM] | 6655.81 | 2856 | 4998 | 6870 |
| COCCc1ccc(OCC(O)CNC(C)C)cc1 (stereo not drawn) [METOPROLOL] | 25.33 | 8.33 | 58 | 15.8 |
| Cc1ncc2n1-c1ccc(Cl)cc1C(c1ccccc1F)=NC2 [MIDAZOLAM] | 66.67 | 4.17 | 1.64 | 23.79 |
| CCCCN1C[C@H](O)[C@@H](O)[C@H](O)[C@H]1CO [MIGLUSTAT] | 358.71 | 166.88 | 16.6 | 204 |
| COc1c(N2C[C@@H]3CCCN[C@@H]3C2)c(F)cc2c(=O)c(C(=O)O)cn(C3CC3)c12 [MOXIFLOXACIN] | 372.73 | 45.09 | 18.35 | 245.95 |
| COC(=O)C1=C(C)NC(C)=C(C(=O)OCCN(C)Cc2ccccc2)C1c1cccc([N+](=O)[O-])c1 (stereo not drawn) [NICARDIPINE] | 10 | 3.84 | 1.1 | 2 |
| COC(=O)C1=C(C)NC(C)=C(C(=O)OCC(C)C)C1c1ccccc1[N+](=O)[O-] (stereo not drawn) [NISOLDIPINE] | 1.2 | 0.84 | 0.49 | 2.64 |
| CS(=O)(=O)Nc1ccc(F)c([C@@H](O)CN)c1 [NS-49] | 306 | 165.6 | 33.3 | 382.2 |
| CC1COc2c(N3CCN(C)CC3)c(F)cc3c(=O)c(C(=O)O)cn1c23 (stereo not drawn) [OFLOXACIN] | 297.93 | 218.1 | 32.85 | 407.7 |
| O=C(O)CCc1nc(-c2ccccc2)c(-c2ccccc2)o1 [OXAPROZIN] | 9.07 | 2.85 | 0.04 | 3.2 |
| CCn1cc(C(=O)O)c(=O)c2cc(F)c(N3CCN(C)CC3)cc21 [PEFLOXACIN] | 505.26 | 259.2 | 67.2 | 120 |
| Cc1nc(=O)c(C#N)c(NCc2cccnc2)[nH]1 [PELRINONE] | 152.38 | 39.2 | 20 | 84 |
| CC(C)NCC(O)COc1cccc2ccccc12 (stereo not drawn) [PROPRANOLOL] | 17.33 | 1.32 | 37.8 | 8.32 |
